In US12202805B2, “Process for preparing (5S)-{[2-(4-carboxyphenyl)ethyl] |2-(2-{|3-chloro-4'-(trifluoromethyl)biphenyl-4-yl]methoxy}phenyl)ethyl]aminol-5,6,7,8-tetrahydroquinoline-2-carboxylic acid and its crystalline forms for use as pharmaceutically active compound” (Bayer Aktiengesellschaft, priority 2021, dated 2025):

What was measured:
[1] = Protein binding via Transil assay, dog plasma; assay type: in vitro ADME
Experimental: Protein Binding of Comparative Example 11 and Comparative Example 1 was Analyzed Via Transil Assay, Described Below.
The distribution of a test substance between Transil® (phosphatidylcholine lipid bilayers immobilized on silica beads) and plasma is a characteristic feature of any pharmaceutical compound and is dependent on its extent of binding to plasma proteins. By comparing the distribution between Transil® and buffer with the distribution between Transil® and plasma of any species of interest, the unbound fraction in the plasma of the respective animal species can be calculated in vitro. The respective plasma and buffer concentrations were determined via a radioactivity analysis. A detailed description of the method and its validation was published by Schuhmacher et al. (2).

[2] = Determination of thermal stability (solid, 7 days at 90° C., HPLC); assay type: physicochemical; details: HPLC peak areas
Experimental: Determination of thermal stability of comparative example 11:
0.3 mg of the comparative example 11 were solved in 0.1 ml dimethylsulfoxide and 0.4 ml acetonitrile. Then 1.0 ml water was added. For complete dissolution the HPLC vial was shaken and sonicated. This solution was immediately analyzed by HPLC (reference at t0). 0.3 mg of the test compound was weighed into another HPLC vial. The vial was capped and stored for 7 days in a heating block at 90° C.
After this time the vial was decapped and 0.1 ml dimethylsulfoxide and 0.4 ml acetonitrile were added to the stressed compound. Then 1.0 ml water was added. For complete dissolution the HPLC vial was shaken and sonicated. The sample was analyzed by HPLC (sample after 1 week). The peak areas in percentage are used for quantification.

[3] = tested on: acetylcholine [ACh] rat model; test: Acetylcholine [ACh] rat model (bronchodilation); details: in vivo
[4] = tested on: sGC; test: E-2.1 inhalative administration in healthy male subjects for 7 days: cGMP in blood samples; assay type: in vivo, human
Experimental: E-2.1 Inhalative Administration of sGC Activators in Healthy Male Subjects for 7 Days—cGMP and Bronchodilatation
Healthy White male subjects, aged 18 to 45 years and with a body mass index (BMI) above/equal 18.5 and below/equal 29.9 kg/m2 were treated in a clinical pharmacological phase I study on seven days with inhaled once daily doses of 480 μg or 1000 μg or 2000 μg (2 capsules of 1000 μg) (nominal dose) of dry powder formulations comprising example 2 or Placebo. The subjects inhaled the drug powder from capsules (see under C-1, e.g. tables 22 and 23) inserted into a handheld inhalation device by one deep inhalative breath. The dry powder formulation of the drug is dispersed into the airstream and fine particles are transported into the deep parts of the lung where it is intended to cause a vasodilation of the blood vessels in PH patients for a substantial reduction of increased blood pressure in the central pulmonary blood vessels in PAH patients or other subtypes of PH. This effect cannot be shown in subjects with healthy lungs. In addition inhaled drug causes a dilation of the bronchial airways and thus also improves disease states of lung diseases in PH patients with pathological bronchoconstriction. This effect was measured via bodyplethysmography as reduction of Specific Airway Resistance in healthy subjects. After the deep inhalative breath the subjects hold breath for 2 seconds, so that the dry powder drug condenses from the airstream onto the surface of the deeper lung areas where it is deposited close to its site of intended pharmacological action. The drug dissolutes over the day and equilibrates the lung via lining fluid.
Drug activity in healthy men was controlled in the healthy subjects by analysing blood samples for cGMP, the immediate product of sGC pharmacological activation prior after the first and after the last drug inhalation of the 7 days treatment in comparison to measurements on the pretreatment day for all doses.

[5] = tested on: patients with PAH or CTEPH; test: E-2.4 inhaled single doses in patients with PAH or CTEPH: PVR, mPAP (right heart catheterization), safety; assay type: in vivo, human
Experimental: E-2.4 Inhaled Administration of Single Doses to Patients with PAH or CTEPH to Investigate the Reduction of Pulmonary Vascular Resistance (PVR)
Patients with PAH or CTEPH aged 18 to 80 years were treated in a clinical phase 1b study with orally inhaled single doses* of 240 μg (2 capsules of 120 μg), 480 μg (1 capsule of 480 μg), 1000 μg (1 capsule of 1000 μg), 2000 μg (2 capsules of 1000 μg) or 4000 μg (4 capsules of 1000 μg) of a dry powder formulation comprising example 4 (see C-1, e.g. tables 17 and 20) inserted into a handheld inhalation device, inhaled by deep inhalative breath into the deep parts of the lung (*single dose means the administration of one dosage form/capsule as well as administration of two or more dosage forms/capsules simultaneously or consecutively within a short time period). The included patients had no background treatment with standard of care (SoC) medication for PAH or CTEPH (such as endothelin antagonists, prostanoids, phosphodiesterase type 5 inhibitor or soluble guanylate cyclase stimulators). Patients in this study underwent invasive right heart catheterization as medically indicated routine diagnostic. Primary objective of the study was to investigate the peak percent reduction from baseline in PVR. Patients had to have a baseline pulmonary artery pressure (mPAP) of ≥25 mmHg and a PVR of ≥400 dyn·sec·cm^−5 (5 Wood Units) and were not to show vaso-responsiveness to initial iNO inhalation testing to be included in the per protocol analysis. Plasma concentrations (pharmacokinetics) of the administered drug at several time points after administration were measured and safety and tolerability was assessed.
The study is divided into two parts, Part A and Part B. In Part A escalating aforementioned single doses were administered to patients without background treatment with standard of care (SoC) medication for PAH or CTEPH (such as endothelin antagonists, prostanoids, phosphodiesterase type 5 inhibitor or soluble guanylate cyclase stimulators). In Part B, after finalization of Part A, a selected dose from PartA will be tested in further patients without background SoC treatment (group 1) and additionally in patients on monotherapy with SoC (group 2) and on dual combination therapy with SoC (group 3).
The PVR is a derived parameter from parameters directly measured during the right heart catheterization procedure. The direct parameters included in the calculation are: mean pulmonary arterial pressure [mmHg](mPAP), pulmonary capillary wedge pressure [mmHg] (PCWP), and cardiac output [1/min] (CO). The PVR is calculated according to the formula: PVR [dyn*sec*cm^−5]=80*(mPAP˜PCWP)/CO.

## O=C(O)c1ccc(CCN(CCc2ccccc2OCc2ccc(-c3ccc(C(F)(F)F)cc3)cc2Cl)[C@H]2CCCc3nc(C(=O)O)ccc32)cc1 [comparative example 11, (5S)-5-{[2-(4-carboxyphenyl)ethyl][2-(2-{[3-chloro-4′-(trifluoromethyl)[biphenyl]-4-yl]methoxy}phenyl)ethyl]amino}-5,6,7,8-tetrahydroquinoline-2-carboxylic acid]
[1]
  fraction unbound, times lower than comparative example 1: 10 times
[2]
  thermal stability: stable
[3]
  effect on ventilation: bronchodilatory effect

## O=C(O)c1ccc(CCN(CCc2ccccc2OCc2ccc(-c3ccc(C(F)(F)F)cc3)cc2Cl)[C@H]2CCCc3nc(C(=O)O)ccc32)cc1 [example 2, (5S)—{[2-(4-Carboxyphenyl)ethyl][2-(2-{[3-chloro-4′-(trifluoromethyl)biphenyl-4-yl]methoxy}phenyl)-ethyl]amino}-5,6,7,8-tetrahydroquinoline-2-carboxylic acid as Monohydrate II]
[4]; 480 μg, 8 D 00 H 00 M
  cGMP over time (mean): 7.20 ± 3.23 nmol/L
[4]; 480 μg, 8 D 12 H 00 M
  cGMP over time (mean): 6.20 ± 2.00 nmol/L
[4]; 480 μg, −0 D 09 H 00 M
  cGMP over time (mean): 5.60 ± 1.08 nmol/L
[4]; 480 μg, −1 D 02 H 00 M
  cGMP over time (mean): 5.40 ± 1.41 nmol/L
[4]; 1000 μg, 5 D 00 H 00 M
  cGMP over time (mean): 8.50 ± 2.13 nmol/L
[4]; 1000 μg, −0 D 22 H 00 M
  cGMP over time (mean): 5.10 ± 1.46 nmol/L
[4]; 2000 μg, 2 D 00 H 00 M
  cGMP over time (mean): 6.40 ± 2.09 nmol/L
[4]; 2000 μg, 3 D 00 H 00 M
  cGMP over time (mean): 10.00 ± 3.51 nmol/L
[4]; 2000 μg, 8 D 00 H 00 M
  cGMP over time (mean): 16.00 ± 5.77 nmol/L
[4]; 2000 μg, 9 D 12 H 00 M
  cGMP over time (mean): 9.40 ± 3.10 nmol/L
[4]; first profile day, 1000 μg inhaled
  peak mean±SD cGMP value: 11.69 ± 1.86 nmol/L

## O=C(O)c1ccc(CCN(CCc2ccccc2OCc2ccc(-c3ccc(C(F)(F)F)cc3)cc2Cl)[C@H]2CCCc3nc(C(=O)O)ccc32)cc1 [example 4, (5S)—{[2-(4-Carboxyphenyl)ethyl][2-(2-{[3-chloro-4′-(trifluoromethyl)biphenyl-4-yl]methoxy}phenyl)-ethyl]amino}-5,6,7,8-tetrahydroquinoline-2-carboxylic acid as Monohydrate I]
[5]; at any dose
  changes of systemic blood pressure, heart rate and oxygen saturation: did not represent a safety concern
[5]; including the highest dose of 4000 μg
  tolerability: good tolerability
[5]; patients with PAH or CTEPH
  systemic cGMP: Increase
[5]; until end of the measurement period
  duration of sustained effect with no decrease in response: ≥ 3 h
